# Laboratory results: patent US20150105252A1, “SUBSTITUTED PYRAZOLES AS HERBICIDES” (E I DU PONT DE NEMOURS AND COMPANY, priority 2013, published 2015)
# Values joined by “and” are separate entries in the source; they are usually repeats but may differ in a detail not shown here. Identical values can stand only once.
# Key:
# [1] = tested on: corn; test: Test F postemergence; assay type: in vivo, Zea mays; details: scale 0 to 100
# From the text: (§1) Seeds of plant species selected from corn (Zea mays), soybean (Glycine max), velvetleaf (Abutilon theophrasti), lambsquarters (Chenopodium album), wild poinsettia (Euphorbia heterophylla), pigweed, palmer (palmer pigweed, Amaranthus palmeri), common waterhemp (Amaranthus rudis), surinam grass (Brachiaria decumbens), large crabgrass (Digitaria sanguinalis), crabgrass, Brazil (Brazilian crabgrass, Digitaria horizontalis), fall panicum (Panicum dichotomiflorum), giant foxtail (Setaria faberii), green foxtail (Setaria viridis), goosegrass (Eleusine indica), johnsongrass (Sorghum halepense), common ragweed (Ambrosia elation), barnyardgrass (Echinochloa crus-galli), southern sandbur (Cenchrus echinatus), arrowleaf sida (Sida rhombifolia), Italian ryegrass (Lolium multiflorum), dayflower, VA (Virginia (VA) dayflower, Commelina virginica), field bindweed (Convolvulus arvensis), cocklebur (common cocklebur, Xanthium strumarium), morningglory (Ipomoea coccinea), nightshade (eastern black nightshade, Solanum ptycanthum), kochia (Kochia scoparia), yellow nutsedge (Cyperus esculentus), and hairy beggarticks (Bidens pilosa), were planted into a silt loam soil and treated preemergence with test chemicals formulated in a non-phytotoxic solvent mixture which included a surfactant.
# (§2) At the same time, plants from these crop and weed species and also horseweed (Canada horseweed, Conyza canadensis), smartweed (ladysthumb smartweed, Polygonum persicaria), waterhemp_RES1, (ALS & Triazine resistant common waterhemp, Amaranthus rudis), and waterhemp_RES2, (ALS & HPPD resistant common waterhemp, Amaranthus rudis) were treated with postemergence applications of test chemicals formulated in the same manner. Plants ranged in height from 2 to 18 cm for postemergence treatments (1- to 4-leaf stage). Treated plants and controls were maintained in a greenhouse for 14 to 21 days, after which time all species were compared to controls and visually evaluated. Plant response ratings, summarized in Table F, are based on a scale of 0 to 100 where 0 is no effect and 100 is complete control. A dash (-) response means no test result.
# [2] = tested on: crabgrass, Brazil; test: Test F postemergence; assay type: in vivo, Digitaria horizontalis; details: scale 0 to 100
# From the text: as §1, §2
# [3] = tested on: barnyardgrass; test: Test F postemergence; assay type: in vivo, Echinochloa crus-galli; details: scale 0 to 100
# From the text: as §1, §2
# [4] = tested on: field bindweed; test: Test F postemergence; assay type: in vivo, Convolvulus arvensis; details: scale 0 to 100
# From the text: as §1, §2
# [5] = tested on: hairy beggarticks; test: Test F postemergence; assay type: in vivo, Bidens pilosa; details: scale 0 to 100
# From the text: as §1, §2
# [6] = tested on: kochia; test: Test A preemergence; assay type: in vivo, Kochia scoparia
# Summary of the method: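 Injury readout: eye-scored versus untreated controls, 0 to 100. Exposure period: ~10 days, greenhouse. Application: soil-directed spray over sown seed (pre) or spray on seedlings 2–10 cm tall with one or two leaves (post), compound carried in non-phytotoxic solvent including surfactant.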
# [7] = tested on: Russian thistle; test: Test C preemergence; assay type: in vivo, Salsola kali; details: for Plant response rating (scale of 0 to 100), Russian Thistle: Preemergence, 250 g ai/ha; for Russian Thistle plant response rating / Plant response rating, Russian Thistle: preemergence; for Plant response rating, Russian Thistle: 62 g ai/ha, scale 0 to 100, 0 = no effect, 100 = complete control
# From the text: Seeds of plant species selected from blackgrass (Alopecurus myosuroides), ryegrass, Italian (Italian ryegrass, Lolium multiflorum), wheat (winter wheat, Triticum aestivum), galium (catchweed bedstraw, Galium aparine), corn (Zea mays), crabgrass, large (large crabgrass, Digitaria sanguinalis), foxtail, giant (giant foxtail, Setaria faberii), johnsongrass (Sorghum halepense), lambsquarters (Chenopodium album), morningglory (Ipomoea coccinea), nutsedge, yellow (yellow nutsedge, Cyperus esculentus), pigweed (redroot pigweed, Amaranthus retroflexus), ragweed (common ragweed, Ambrosia elation), soybean (Glycine max), barnyardgrass (Echinochloa crus-galli), oilseed rape (Brassica napus), waterhemp (common waterhemp, Amaranthus rudis), oat, wild (wild oat, Avena fatua), kochia (Kochia scoparia), Surinam grass (Brachiaria decumbens), foxtail, green (green foxtail, Setaria viridis), goosegrass (Eleusine indica), bromegrass, downy (downy bromegrass, Bromus tectorum), nightshade (eastern black nightshade, Solanum ptycanthum), cocklebur (common cocklebur, Xanthium strumarium), cupgrass, woolly (woolly cupgrass, Eriochloa villosa), bermudagrass (Cynodon dactylon), sunflower, (common oilseed sunflower, Helianthus annuus), Russian thistle (Salsola kali), and velvetleaf (Abutilon theophrasti) were planted into a blend of loam soil and sand and treated preemergence with test chemicals formulated in a non-phytotoxic solvent mixture which included a surfactant.
# At the same time, plants selected from these crop and weed species and also chickweed (common chickweed, Stellaria media), canarygrass (littleseed canarygrass, Phalaris minor), and deadnettle (henbit deadnettle, Lamium amplexicaule), were planted in pots containing Redi-Earth® planting medium (Scotts Company, 14111 Scottslawn Road, Marysville, Ohio 43041) comprising spaghnum peat moss, vermiculite, wetting agent and starter nutrients and treated with postemergence applications of test chemicals formulated in the same manner. Plants ranged in height from 2 to 18 cm (1- to 4-leaf stage) for postemergence treatments. Treated plants and controls were maintained in a greenhouse for 13 to 15 days, after which time all species were compared to controls and visually evaluated. Plant response ratings, summarized in Table C, are based on a scale of 0 to 100 where 0 is no effect and 100 is complete control. A dash (-) response means no test result.
# [8] = tested on: common waterhemp; test: Test F preemergence; assay type: in vivo, Amaranthus rudis
# From the text: as §1, §2
# [9] = tested on: fall panicum; test: Test F preemergence; assay type: in vivo, Panicum dichotomiflorum
# From the text: as §1, §2
# [10] = 125 g ai/ha, visual injury, 0 to 100 scale, approx. 10 days
# [11] = 500 g ai/ha, visual injury after approx. 10 days, 0 to 100 scale (0 no effect, 100 complete control)
# [12] = 31 g ai/ha, scale 0 to 100 (0 no effect, 100 complete control), 13 to 15 days
# [13] = 125 g ai/ha, scale 0 to 100, 0 is no effect, 100 is complete control
# [14] = Preemergence, 16 g ai/ha, scale 0 to 100
# [15] = Preemergence, 62 g ai/ha, scale 0 to 100
# [16] = Preemergence, 125 g ai/ha, scale 0 to 100
# [17] = Preemergence, 250 g ai/ha, scale 0 to 100
# [18] = preemergence, 16 g ai/ha, scale 0 to 100, 100 is complete control
# [19] = Preemergence, 31 g ai/ha, scale 0 to 100
# [20] = preemergence, 8 g ai/ha, scale 0 to 100, 100 is complete control
compound,measurement,setting,value
CCCNC(=O)c1cc(CC)n(Cc2nc(C(F)(F)F)nn2C)n1 [Compound 109],"Plant response rating, Corn","[1]; Postemergence, 16 g ai/ha",0
same,"Plant response rating, Corn","[1]; Postemergence, 31 g ai/ha",0
same,"Plant response rating, Corn","[1]; Postemergence, 125 g ai/ha",20
same,"Plant response rating, Corn","[1]; Postemergence, 250 g ai/ha",75
same,"Plant response rating, Crabgrass, Brazil","[2]; Postemergence, 16 g ai/ha",10
same,"Plant response rating, Crabgrass, Brazil","[2]; Postemergence, 31 g ai/ha",10
same,"Plant response rating, Crabgrass, Brazil","[2]; Postemergence, 125 g ai/ha",40
same,"Plant response rating, Crabgrass, Brazil","[2]; Postemergence, 250 g ai/ha",70
same,"Plant response rating, Barnyardgrass","[3]; Postemergence, 16 g ai/ha",0
same,"Plant response rating, Barnyardgrass","[3]; Postemergence, 31 g ai/ha",0
same,"Plant response rating, Barnyardgrass","[3]; Postemergence, 125 g ai/ha",30
same,"Plant response rating, Barnyardgrass","[3]; Postemergence, 250 g ai/ha",50
same,"Plant response rating, Field Bindweed","[4]; Postemergence, 16 g ai/ha",30
same,"Plant response rating, Field Bindweed","[4]; Postemergence, 31 g ai/ha",40
same,"Plant response rating, Field Bindweed","[4]; Postemergence, 125 g ai/ha",50
same,"Plant response rating, Field Bindweed","[4]; Postemergence, 250 g ai/ha",80
same,"Plant response rating, Hairy Beggarticks","[5]; Postemergence, 16 g ai/ha",35
same,"Plant response rating, Hairy Beggarticks","[5]; Postemergence, 31 g ai/ha",45
same,"Plant response rating, Hairy Beggarticks","[5]; Postemergence, 125 g ai/ha",50
same,"Plant response rating, Hairy Beggarticks","[5]; Postemergence, 250 g ai/ha",60
CCCc1cc(C(=O)NCC(F)(F)F)nn1Cc1ccnc(OC(F)F)c1 [Compound 127],Kochia plant response rating,[6]; [10],100
same,Kochia plant response rating,[6]; [11],100
CCc1cc(C(=O)NOC(C)C)nn1Cc1ccnc(OC(F)F)c1 [Compound 126],Kochia plant response rating,[6]; [10],100
same,Kochia plant response rating,[6]; [11],100
CCCNC(=O)c1cc(OCC)n(Cc2ccnc(OC(F)F)c2)n1 [Compound 136],Kochia plant response rating,[6]; [10],100
same,Kochia plant response rating,[6]; [11],100
CCONC(=O)c1cc(CC)n(Cc2cccc(OC(F)(F)F)c2)n1 [Compound 72],"Plant response rating (scale of 0 to 100), Russian Thistle",[7],95
same,Russian Thistle plant response rating,[7]; [12],5
same,"Plant response rating, Russian Thistle",[7]; 13 to 15 days,90
same,Russian Thistle plant response rating,[7]; [13],95
CCCc1cc(C(=O)NC(C)C)nn1Cc1cc(C(F)(F)F)nn1C [Compound 201],"Plant response rating, Common Waterhemp",[8]; [14],0
same,"Plant response rating, Common Waterhemp",[8]; [15],75
same,"Plant response rating, Common Waterhemp",[8]; [16],80
same,"Plant response rating, Common Waterhemp",[8]; [17],100
same,"Plant response rating, Common Waterhemp",[8]; [18],5
same,"Plant response rating, Fall Panicum",[9]; [14],85
same,"Plant response rating, Fall Panicum",[9]; [15],90
same,"Plant response rating, Fall Panicum",[9]; [16],100
same,"Plant response rating, Fall Panicum",[9]; [17],100
same,"Plant response rating, Fall Panicum",[9]; [18],0
CCc1cc(-c2ccc(C(F)(F)F)cc2)nn1Cc1ccnc(C(F)(F)F)c1 [Compound 110],"Plant response rating, Common Waterhemp",[8]; [19],85
same,"Plant response rating, Common Waterhemp",[8]; [15],100
same,"Plant response rating, Common Waterhemp",[8]; [16],100
same,"Plant response rating, Common Waterhemp",[8]; [20],65
same,"Plant response rating, Common Waterhemp",[8]; [18],65
same,"Plant response rating, Fall Panicum",[9]; [19],75
same,"Plant response rating, Fall Panicum",[9]; [15],98
same,"Plant response rating, Fall Panicum",[9]; [16],100
same,"Plant response rating, Fall Panicum",[9]; [20],0
same,"Plant response rating, Fall Panicum",[9]; [18],5
same,"Plant response rating, Corn","[1]; Postemergence, 16 g ai/ha",10
same,"Plant response rating, Corn","[1]; Postemergence, 31 g ai/ha",10
same,"Plant response rating, Corn","[1]; Postemergence, 125 g ai/ha",20
same,"Plant response rating, Corn","[1]; postemergence, 62 g ai/ha",10 and 15
same,"Plant response rating, Corn","[1]; postemergence, 8 g ai/ha",10
same,"Plant response rating, Crabgrass, Brazil","[2]; Postemergence, 16 g ai/ha",30
same,"Plant response rating, Crabgrass, Brazil","[2]; Postemergence, 31 g ai/ha",30
same,"Plant response rating, Crabgrass, Brazil","[2]; Postemergence, 125 g ai/ha",50
same,"Plant response rating, Crabgrass, Brazil","[2]; postemergence, 62 g ai/ha",30 and 40
same,"Plant response rating, Crabgrass, Brazil","[2]; postemergence, 8 g ai/ha",20
same,"Plant response rating, Barnyardgrass","[3]; Postemergence, 16 g ai/ha",20
same,"Plant response rating, Barnyardgrass","[3]; Postemergence, 31 g ai/ha",20
same,"Plant response rating, Barnyardgrass","[3]; Postemergence, 125 g ai/ha",50
same,"Plant response rating, Barnyardgrass","[3]; postemergence, 8 g ai/ha",10
same,"Plant response rating, Field Bindweed","[4]; Postemergence, 16 g ai/ha",40
same,"Plant response rating, Field Bindweed","[4]; Postemergence, 31 g ai/ha",60
same,"Plant response rating, Field Bindweed","[4]; Postemergence, 125 g ai/ha",60
same,"Plant response rating, Field Bindweed","[4]; postemergence, 62 g ai/ha",40 and 50
same,"Plant response rating, Field Bindweed","[4]; postemergence, 8 g ai/ha",30
same,"Plant response rating, Hairy Beggarticks","[5]; Postemergence, 16 g ai/ha",50
same,"Plant response rating, Hairy Beggarticks","[5]; Postemergence, 31 g ai/ha",60
same,"Plant response rating, Hairy Beggarticks","[5]; Postemergence, 125 g ai/ha",70
same,"Plant response rating, Hairy Beggarticks","[5]; postemergence, 62 g ai/ha",50 and 60
same,"Plant response rating, Hairy Beggarticks","[5]; postemergence, 8 g ai/ha",30
CCOc1cc(C(=O)NCC(F)(F)F)nn1Cc1ccnc(OC(F)F)c1 [Compound 128],Kochia plant response rating,[6]; [10],100
same,Kochia plant response rating,[6]; [11],100
CCc1cc(C(=O)NCC(F)(F)F)nn1Cc1ccnc(Br)c1 [Compound 224],"Plant response rating, Common Waterhemp",[8]; [15],100
same,"Plant response rating, Common Waterhemp",[8]; [16],100
same,"Plant response rating, Common Waterhemp",[8]; [17],100
CCc1cc(C(=O)NOC(C)C)nn1Cc1cccc(OC(F)(F)F)c1 [Compound 70],"Plant response rating (scale of 0 to 100), Russian Thistle",[7],80
same,Russian Thistle plant response rating,[7]; [12],65
same,"Plant response rating, Russian Thistle",[7]; 13 to 15 days,75
same,Russian Thistle plant response rating,[7]; [13],75
CCCc1cc(C(=O)NC2CC2)nn1Cc1ccnc(OC(F)F)c1 [Compound 205],Kochia plant response rating (0 to 100 scale),"[6]; 125 g ai/ha, visual injury approx. 10 days after treatment",100
